Measured values taken from patent publication US10300107B2, “Compositions and methods for CaMKII inhibitors and uses thereof” (THE REGENTS OF THE UNIVERSITY OF COLORADO, priority 2007, dated 2019).
pIC50, pKd: −log10 of the molar value. Several values for one entry are separate records, joined by “and”; a condition that tells them apart may be missing. Equal entries are not always repeated. Entries after “also recorded” stand apart in the source; their conditions may differ. Where two headings read alike, the source gives them in different places. One block for each molecule: values may come before it. Where no end group is shown, it is not given here.

Key:
[1] = target: T1, CaMKII binding to GST-NR2B-c (Homo sapiens, UniProt Q9UQM7); assay: Ca2+/CaM-induced CaMKII binding to immobilized GST-NR2B-c; conditions: Western blot of eluted CaMKII
T1 construct: made in house; host or cells: CaMKII: baculovirus/Sf9; GST-NR2B-c and CaM: bacteria
Protocol: CaMKII binding to NR2B-c was assessed as previously described. Briefly, GST-NR2B-c was immobilized on anti-GST coated microtiter plates, then overlaid with 100 nM CaMKII in presence of Ca^2+/CaM and 1 or 5 μM of various CN peptides. After extensive wash, protein was eluted from the plates by boiling in SDS-loading buffer. Eluted CaMKII was detected by Western-blot as described above.

Langerhans' islets = assay: Glucose-induced insulin secretion from isolated Langerhans' islets; assay type: cell-based, rat; conditions: 11 mM glucose; EGTA 0.5 mM, KN93 10 μM, antCN27 5 μM, tatCN21 5 μM
Protocol: Insulin secretion. Langerhans' islets acutely isolated from adult male Wistar rats (Harlan) were obtained. […] Inhibitors or EGTA were added 30 min before stimulation. Insulin secreted into the medium during 90 min stimulation was measured using an ELISA kit (CrystalChem).

CaMKII [2] = assay type: biochemical; conditions: for pIC50: read-out: IC50 of CaMKII inhibition; for potency of CaMKII inhibition of CN19 combination mutants: comparator as stated in the value; for effect of further mutation on potency of CaMKII inhibition: CN19a2v background
Protocol: CaMKII activity assays. Standard CaMKII assays were done for 1 min at 30° C. previously described, with 20 nM CaMKII (subunit, not holoenzyme concentration), 50 mM PIPES pH 7.2, 0.1 mg/ml BSA, 10 mM MgCl2, 100 μM [γ-^32P] ATP (˜1 Ci/mmol), 1 mM CaCl2, 1-2 μM CaM, and 30-60 μM AC2 peptide (or syntide2). The reactions were spotted onto Whatman P81 phosphocellulose paper rectangles (˜2×2.5 cm). To remove free radioactivity, the paper rectangles were rinsed and washed for 30 min under agitation in 0.5% phosphoric acid or water. […] Radioactivity of the bound peptides was quantified in a Beckman 6000TA scintillation counter by the Cherenkov method. Any changes of the standard protocol were done as indicated. For assays of the GFP-CaMKIIα mutants, kinase amounts were normalized by GFP fluorescence in the extract, and total protein was adjusted with Cos-7 extracts.

CaMKII [3] = target: T2, CaMKII (Homo sapiens, UniProt Q9UQM7); assay: Autonomous CaMKII activity (pre-autophosphorylated CaMKII); assay type: biochemical
T2 construct: made in house; host or cells: baculovirus/Sf9 cells
Protocol: (§1) Stimulated CaMKII activity was assessed using purified CaMKII, [γ^32P]ATP, and the CaMKII substrate, syntide2. Reaction was initiated by addition of calcium and calmodulin. To measure autonomous activity, CaMKII was pre-autophosphorylated by incubation with calcium and calmodulin, which was then chelated by addition of EDTA prior to adding the kinase to syntide2 and [γ^32P]ATP. […] To measure self-association, purified CaMKII was incubated for five minutes with 1mM ADP, calcium and calmodulin, and the appropriate inhibitor. The reaction mixture was then centrifuged to pellet the self-associated kinase. The supernatant (S) was removed and saved and the pellet (P) was resuspended. Both were then resolved by SDS-PAGE and western-blotted for CaMKII. Self-associated kinase is found in the pellet.

CaMKII [4] = target: T2, CaMKII; assay: CaMKII auto- and protein-phosphorylation (MAP2, T286, T305; immuno-blot); assay type: biochemical; conditions: KN93 10 μM
Protocol: CaMKII auto- and protein-phosphorylation. 10 nM MAP2 (˜140 nM phosphorylation sites) was used instead of substrate peptide, and reaction times were 5 min, unless indicated otherwise. CaMKII concentration was 100 nM subunits (=8.3 nM holoenzymes). Auto- and MAP2-phosphorylation were assessed by Immuno-blot analysis previously derived (Bayer et al., 2002, incorporated herein by reference) with phospho-T286- or -T305-specific antibodies (1:500; PhosphoSolutions) and an anti-phospho-Thr antibody (1:500; Zymed), respectively. Total CaMKIIα was detected with CBα2 antibody (1:2000; GIBCO). Protein were separated on 10% poly-acrylamid SDS Gels, and electro-blotted onto “Protran” 0.2 μm pore nitrocelluse filters (e.g. Schleicher & Schull) or onto PVDF filters (e.g. Perkin Elmer). Alternatively, for quantitative analyses, a vacuum-driven slot-blot manifold (e.g. Schleicher & Schull) was used for transfer onto PVDF membranes. PVDF membranes were air-dried for 15 min, then wetted in Methanol. Blots were blocked in 5% milk in TBS-T (Tris-buffered saline pH 7.6 with 0.1% Tween-20). Antibodies were incubated for 45-60 min at room temperature in 2.5% milk in TBS-T; for the anti-phospho-T305 antibody, 2.5% BSA was used instead. After secondary antibody incubation (anti-mouse or anti-rabbit horseradish peroxidase conjugate; Amersham; 1:4000), detection was done using the “Western Lightning” system (Perkin Elmer) and exposure to “Hyperfilm” (Amersham). For quantitative analysis, chemoluminescence was captured using a ChemiImager 4400 imaging system (Alpha Innotek) instead of film. Only non-saturated images were analyzed, using AlphaEase software.

CaMKII [5] = target: T2, CaMKII; assay: CaMKII self-association in vitro; assay type: biochemical
Protocol: as §1

[6] = system: hippocampal and cortical cultures; assay: Glutamate induced neuronal cell death measured by LDH release; assay type: cell-based, rat
Protocol: In another example, neuronal cell death is measured by LDH release. In this exemplary method, glutamate was used to induce neuronal cell death, A portion of CaMKIIN was fused to a cell penetrating molecule to generate tatCN21a construct.

CaMKI = CaMKI (Homo sapiens, UniProt Q14012); assay: CaMKI activity / inhibition; assay type: biochemical
Source text: For curve fit, the Hill coefficient was set as 1.

calmodulin (CaM) = calmodulin (CaM) (Homo sapiens, UniProt P0DP23); assay: Binding to calmodulin (slot blot, blot overlay, TA-CaM competition with CBD); conditions: for binding of biotinylated CaM to immobilized peptide: slot blot
Protocol: TA-labeled CaM represents reduced fluorescence after binding to CaMKII or its CaM binding domain (CBD; −0.05 nM kD for CaM^5; see also FIG. 9G).
Measured was AC2 phosphorylation as described^4. Error bars show s.e.m.

protein kinase C (PKC) = assay: Phosphorylation of CN19 peptides by PKC in vitro; assay type: biochemical
Source text: CN19 phosphorylation at S12 by protein kinase C reduces potency of CaMKII inhibition. In another exemplary method, protein kinase C (PKC) activity was examined with respect to CN19 as a substrate or the S12 mutant. […] The CN19 region most sensitive to Ala substitutions (surrounding R11) contains a potential PKC phosphorylation site (S12).
FIGS. 22A and 22B represent CN19 phosphorylation at S12 by PKC reduces potency of CaMKII inhibition. A, PKC phosphorylated CN19 but not its S12A mutant in vitro, as measured by phosphate incorporation. The phosphorylation rate of CN19 was >50% compared to a MARCKS peptide substrate of PKC. […] S12 was sensitive also to various other mutations (see Table 1 and data not shown). Error bars indicate s.e.m. in all panels.

Sequence of CaMKI (Q14012 whole entry, species assumed): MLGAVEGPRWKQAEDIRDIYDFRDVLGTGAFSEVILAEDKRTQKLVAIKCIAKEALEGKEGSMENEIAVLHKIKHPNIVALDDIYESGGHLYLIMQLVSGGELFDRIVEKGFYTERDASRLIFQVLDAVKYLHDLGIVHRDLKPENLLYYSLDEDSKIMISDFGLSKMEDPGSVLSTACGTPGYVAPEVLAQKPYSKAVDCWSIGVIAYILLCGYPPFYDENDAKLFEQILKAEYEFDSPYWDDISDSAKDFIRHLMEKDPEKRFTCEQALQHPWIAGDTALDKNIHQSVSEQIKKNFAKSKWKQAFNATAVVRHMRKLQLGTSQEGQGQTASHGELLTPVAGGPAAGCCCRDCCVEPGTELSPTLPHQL

Molecule: COc1ccc(S(=O)(=O)N(CCO)c2ccccc2CN(C)C/C=C/c2ccc(Cl)cc2)cc1 [KN93, reference compound]
CaMKII binding to immobilized GST-NR2B-c / NR2B [1]: inhibited binding
glucose-induced insulin secretion (Langerhans' islets): inhibited
calcium and calmodulin stimulated CaMKII activity (CaMKII [2]; substrate syntide2): inhibit calcium and calmodulin stimulated CaMKII activity
autonomous CaMKII activity (CaMKII [3]): only tatCN21 inhibits autonomy
CaMKII T305 auto-phosphorylation (CaMKII [4]; CN21 5 μM): blocked T305
CaMKII T286 auto-phosphorylation (CaMKII [4]; CN peptides 1-5 μM): essentially completely blocked
CaMKII self-association in vitro (CaMKII [5]): inhibited
glutamate induced neuronal cell death ([6]; added 1 h after the insult): not when added after the insult; also recorded: only when applied during but not after glutamate insult
glutamate induced neuronal cell death ([6]; present during the insult): protective only when present during the insult; also recorded: reduce by half

effect on CaMKI activity (CaMKI): no significant effect
Molecule: CN27: CaM-KIINtide, previously identified inhibitory region of CaM-KIIN, SEQ ID NO:17 (KRPPKLGQIGRSKRVVIEDDRIDDVLK; Derived from CaMKIIN) [reference compound]
inhibition of CaMKII isoforms α and β (CaMKII [2]): inhibit both major brain CaMKII isoforms, α and β

pIC50 (CaMKII [2]; phosphorylation of syntide 2): ~7.00
Molecule: KRPPKLGQIGRSKRVVIEDD [CN20]

pIC50 (CaMKI): ~4.74
pIC50 (CaMKII [2]; phosphorylation of syntide 2): ~7.70 and 7.70
Molecule: KRAPKLGQIGRVKAVVIED [CN19a2v]
increase of potency of CaMKII inhibition compared to CN19 (CaMKII [2]): about 5 fold
potency of CaMKII inhibition of CN19 combination mutants (CaMKII [2]): without loss of inhibition potency; also recorded: significantly stronger compared to CN19a3 with additional S12V mutation; also recorded: did not reduce potency

CaMKII binding to immobilized GST-NR2B-c / NR2B [1]: did not
Molecule: CC1CNCCN1S(=O)(=O)c1cccc2cnccc12 (stereo not shown) [H7, reference compound]

IC50 of CaMKII inhibition (CaMKII [2]; phosphorylation of syntide 2): single digit
Molecule: KRPPKLGQIGRSKAVVIED [R14A]
increase of potency of CaMKII inhibition compared to CN19 (CaMKII [2]): over 10 fold
effect of single CN19 mutation on potency of CaMKII inhibition (CaMKII [2]; compared to CN19 wild type): significantly increased potency; also recorded: very potent

Molecule: N[C@@H](CCCP(=O)(O)O)C(=O)O [APV]
glutamate induced cell death ([6]; 7DIV cortical, added 1-6 hours post insult): did not
glutamate induced neuronal cell death ([6]; present during the insult): only reduces cell death when present during the insult

Molecule: CN17a: C-terminal truncation of CN21a by 4 amino acids (KRPPKLGQIGRSKRVVI)
inhibitory potency on CaMKII activity (CaMKII [2]; CN truncation peptides, substrate peptides AC2 or syntide 2): still clearly affected CaMKII activity

Molecule: O=C(O)CN(CCOCCOCCN(CC(=O)O)CC(=O)O)CC(=O)O [EGTA]
glucose-induced insulin secretion (Langerhans' islets): inhibited

pKd (calmodulin (CaM)): ~8.30
competition with CBD for binding of TA-labeled CaM (calmodulin (CaM)): compete
binding of biotinylated CaM to immobilized peptide (calmodulin (CaM)): Direct binding
Molecule: RQIKIWFQNRRMKWK [ant]
interference with Ca2+-dependent CaM binding to brain proteins (calmodulin (CaM); blot overlay assay, 5 μM peptide): also interfered with such CaM binding, but somewhat less efficiently than antCN27; also recorded: affect Ca^2+-dependent CaM binding

Molecule: V16D: CN19 position 16 substituted with D (rational mutagenesis) (KRAPKLGQIGRVKAVDIED)
Effects of individual CN19 mutations on CaMKII inhibition: column + (CaMKII [2]; value = substituting residue listed under +): D*

pIC50 (CaMKII [2]; phosphorylation of syntide 2): ~9.00
Molecule: KRAPKLGQIGRQKAVVIED [CN19a2v V12Q]
effect of further mutation on potency of CaMKII inhibition (CaMKII [2]): significantly increase potency; also recorded: dramatically increase CaMKII inhibition

Molecule: CN19a3: CN19 triple mutant P3A, K13A, R14A (KRAPKLGQIGRSAAVVIED)
potency of CaMKII inhibition of CN19 combination mutants (CaMKII [2]): significantly increased over CN19 wild type; also recorded: significantly increased potency compared to single mutant with the highest potency, R14A
potency of CaMKII inhibition of CN19 combination mutants (CaMKII [2]; listed as a3): significantly increased potency of CaMKII inhibition over CN19 wild type; also recorded: slightly better inhibition than the aX mutant

pIC50 (CaMKII [2]; phosphorylation of syntide 2): ~9.00
Molecule: KRAPKLGQIGRVKAVDIED [CN19a2v V16D]
effect of further mutation on potency of CaMKII inhibition (CaMKII [2]): significantly increase potency; also recorded: dramatically increase CaMKII inhibition

Molecule: CN19a2: CN19 double mutant P3A, R14A, SEQ ID NO: 25 (KRAPKLGQIGRSKAVVIED; Derived from CamKIIN with amino acid substitutions)
potency of CaMKII inhibition of CN19 combination mutants (CaMKII [2]): largest increase in CaMKII inhibition potency; also recorded: most potent double mutant of CN19
potency of CaMKII inhibition of CN19 combination mutants (CaMKII [2]; listed as a2): higher potency than the a3 mutant; also recorded: significant inhibition even at 10 nM

pIC50 (CaMKI): ~4.44
effect on CaMKI activity (CaMKI): no significant effect
phosphorylated by PKC (protein kinase C (PKC)): phosphorylated by PKC
phosphorylation rate by PKC compared to MARCKS peptide substrate (protein kinase C (PKC)): > 50%
Molecule: KRPPKLGQIGRSKRVVIED [CN19]

Molecule: tat: cell penetrating sequence YGRKKRRQRRR, SEQ ID NO:15 [reference compound]
binding of biotinylated CaM to immobilized peptide (calmodulin (CaM)): did not bind
effect on CaMKI activity (CaMKI): statistically significant but much milder effects
